Data taken from patent US10759735B2, “Bridged bicyclic compounds and their derivatives as neuroprotective agents and methods of use thereof” (Florida Atlantic University Board of Trustees, priority 2018, dated 2020).
pEC50: −log10 of the molar value. “Also recorded” adds a separate entry of the source.

Assays:
Assay type in all cases: in vivo, Drosophila melanogaster
[1] = tested on: Drosophila larval neuromuscular junction synaptic transmission; assay: neuromuscular junction (NMJ) postsynaptic transmission assay: time to synaptic failure under acute oxidative stress (2.25 mM H2O2); conditions: for pEC50: Drosophila melanogaster, read-out: EC50 (half-maximal effective concentration) in protecting neurotransmission from H2O2 exposure, 2.25 mM H2O2 in HL3 saline, w1118 third instar larvae, from % maximal response of time to synaptic failure
Description: Small molecule-mediated neuroprotection is an area of research that has important implications for several maladies such as migraine, Alzheimer's disease, and stroke. One promising method to measure the neuroprotective effects of various medicinal compounds against oxidative stress in D. melanogaster has been developed (Caplan et al. Journal of Neurophysiology, 2013, 109, 3, 649-658). In this phenotypic model, fly larvae have their synaptic transmission measured via electrical probes in the post-synaptic neuromuscular junction (NMJ). The time until synaptic failure is first measured to obtain a control. An oxidizing solution (2.25 mM of hydrogen peroxide) is then introduced to the tissue and the time to synaptic failure is again measured. Hydrogen peroxide greatly reduces the time to synaptic failure relative to the control by damaging neurons through oxidative stress. Once the time to synaptic failure has been established with hydrogen peroxide alone, then different compounds can be introduced at varying concentrations along with the hydrogen peroxide solution, and their effects on the time to synaptic failure are measured and compared to the two controls.
A series of compounds generated using the methods described herein were subjected to a neuromuscular junction (NMJ) postsynaptic transmission assay. Resveratrol was included as a neuroprotectant control. When a wash of hydrogen peroxide (2.25 mM) was introduced, the time to synaptic failure was shortened from approximately 150 min to approximately 40 min (FIG. 2). Introducing resveratrol at 25 nM restored the time to synaptic failure to approximately 150 min upon addition of hydrogen peroxide (2.25 mM).
To quantify tolerance of neurotransmission to acute oxidative stress, electrophysiological recordings from Drosophila larval preparations were conducted in a hemolymph-like 3 (HL3) saline containing 2.25 mM hydrogen peroxide (H2O2).
Wandering third instar larvae (≈110 hours old) from the fruit fly, Drosophila melanogaster, were utilized for all electrophysiological experiments described throughout this study. Larvae were reared at 25° C. on 12 h:12 h light-dark (LD) cycles in an incubator. Only w^1118 larvae were utilized in this study.
(§1) All electrophysiological experiments were performed as previously described with the exception of the resistance of the intracellular electrodes (60-90 MΩ) (Caplan et al. J. Neurophys. 109, 649-658). Excitatory junction potentials (EJPs) were elicited via repetitive stimulation (0.3 ms pulses delivered suprathreshold at a frequency of 1 Hz) and measured until synaptic failure occurred, which was characterized by an EJP amplitude of <1 mV being recorded. Electrophysiological recordings from larval preparations were conducted in hemolymph-like 3 (HL3) saline containing 2.25 mM H2O2. […] HL3 saline containing 1.5 mM Ca^2+ and 20 mM Mg^2+ was used as the recording saline throughout this study. HL3 has been utilized by other research groups to record EJPs.^20 Intracellular recordings of resting membrane potential were taken from Drosophila larval muscle 6.
All test compounds and H2O2 were applied to the Drosophila larval NMJ preparation as previously described by Caplan et al. (supra). However, the compounds utilized in the Caplan et al. work were dissolved in dimethyl sulfoxide (DMSO), whereas the compounds utilized in the present study are water-soluble at the concentrations used and thus were dissolved in ddH2O.
The statistics utilized in the vertical bar charts and line graphs were performed as previously described with the exception of the error bars being presented as mean±SEM instead of mean±SD. The EC50, or half maximal effective concentration, of each test compound was determined by plotting the logio(compound dose) against the corresponding average percentage of the maximal effectiveness, as previously described (Caplan et al. J. Neurophys. 109, 649-658).

[2] = tested on: Drosophila larval muscle 6 resting membrane potential; assay: intracellular recording of resting membrane potential (RMP) during acute oxidative stress; conditions: 1 nM with 2.25 mM H2O2 versus H2O2 alone
Procedure: FIGS. 8A and 8B are a pair of graphs showing that during acute oxidative stress, Drosophila larval muscle resting membrane potential (RMP) and EJP amplitude decline. […] 8B) EJP amplitude was recorded in the same larval preparations (n=5 per group). […] Data is presented as mean±SEM.
To ensure that the results obtained using compound 1 and resveratrol were not due to changes in the EJP, additional control experiments were performed, as previously described (Caplan et al. J. Neurophys. 109, 649-658). […] It was also observed that resting membrane potential (RMP) and EJP amplitude decline in larvae treated with H2O2 alone and H2O2 with 1 nM compound 1 (see FIGS. 8A. 8B).
as §1, with “HL3 has been utilized by other research groups to record EJPs.^20 Intracellular recordings of resting membrane potential were taken from Drosophila larval muscle 6.” left out

[3] = tested on: excitatory junction potential (EJP) at the Drosophila NMJ; assay: control recordings of excitatory junction potential (EJP) shape and amplitude; conditions: 1 nM, in the presence and absence of 2.25 mM H2O2, ten minutes after bath switch
Description: In all panels, the curved black line represents the average EJP in hemolymph-like saline (HL3) one minute before the recording bath was replaced with HL3 containing the drug alone or the drug and H2O2. The curved gray line represents the average EJP from the same larvae ten minutes after the bath was switched from HL3 saline to HL3 containing either the drug alone or the drug and H2O2.

`COc1cc(OC)cc(C2CC3C(OC(C)=O)C(C)=C(C)C2(C(=O)O)C3OC(C)=O)c1` (racemic) [compound 1, 7-(3,5-dimethoxyphenyl)-4,8-diacetoxy-2,3-dimethylbicyclo[3.2.1]oct-2-ene-1-carboxylic acid] was tested, and the “time until synaptic failure restored” value ([1]; 0.5 nM, in the presence of hydrogen peroxide) was 80%, the “normal synaptic function maintained” value ([1]; 25 nM, H2O2 2.25 mM, wild-type fruit fly larvae) was 100% and the “time to synaptic failure compared to control and resveratrol-treated preparations” value ([1]; 0.5-5 nM dosage range, 2.25 mM H2O2, P<0.001) was “significantly increased time to synaptic failure”. The pEC50 [1] was roughly 9.68, the “neuroprotection in screening of initial compounds” value ([1]; H2O2 2.25 mM, wild-type fruit fly larvae) was “potent neuroprotectants” and the “neuroprotective effect compared to resveratrol across dosages” value ([1]; almost all dosages tested (0.5 nM to 25 nM)) was “stronger neuroprotective effects”. For the same compound, the “protection of synaptic transmission from acute oxidative stress” value ([1]; at a subnanomolar level) was “protect synaptic transmission from acute oxidative stress”, the “dose dependence of neuroprotective effect” value ([1]; dose-response, 2.25 mM H2O2) was “dose-dependent manner” and the “neuroprotective effect at lowest dose” value ([1]; doses as low as 500 pM, H2O2 exposure) was “strong neuroprotective effects”. The ion channel stabilization ([1]; general statement ('appear to have'), no separate test described) was “ion channel stabilization effects”, the toxicity ([1]; general statement, no separate test described) was “non-toxic” and the “time until synaptic failure compared to control larvae treated with 2.25 mM H2O2 only” value ([1]; low doses (0.5 nM and 1 nM)) was “significantly increased the amount of time until synaptic failure”. The “neuroprotective effect compared to resveratrol” value ([1]; similar dosage of resveratrol, P<0.001) was “stronger neuroprotective effects”, the “decline of resting membrane potential (RMP)” value [2] was “significantly slowed the decline of RMP” and the “acute effect on the shape or amplitude of the EJP” value [3] was “do not have a significant acute effect; also recorded: do not acutely affect”.
`COc1cc(OC)cc(C2CC3C(O)C(C)=C(C)C2(C(=O)O)C3O)c1` (racemic) [compound 2, 7-(3,5-dimethoxyphenyl)-4,8-dihydroxy-2,3-dimethylbicyclo[3.2.1]oct-2-ene-1-carboxylic acid] was tested, and the pEC50 [1] was 8.52, the “time to synaptic failure during H2O2 exposure compared to control preparations” value ([1]; higher doses, P<0.001) was “significantly increased time to synaptic failure” and the “time to failure during H2O2 exposure” value ([1]; low doses (0.1 nM and 0.5 nM)) was “did not prolong time to failure”. The “time to synaptic failure compared to control” value ([1]; only at the 5.0 nM dosage, 2.25 mM H2O2, P<0.001) was “similarly increased time to synaptic failure” and the “EC50 relative to compound 1” value ([1]; ratio of EC50 values) was “over ten-fold higher”.
In the case of `Oc1ccc(C=Cc2cc(O)cc(O)c2)cc1` [resveratrol, reference compound], the “time to synaptic failure” value ([1]; 25 nM with hydrogen peroxide 2.25 mM (H2O2 alone approx. 40 min, no H2O2 approx. 150 min)) was “approximately 150 min”, the “neuroprotectant activity from the dose curve” value ([1]; at the chosen dosages, unusual dose curve, EC50 not reliably determinable) was “does not act as a neuroprotectant” and the “acute effect on the shape or amplitude of the EJP” value [3] was “do not have a significant acute effect; also recorded: do not acutely affect”.
